The values that follow come from article PMC8234620, “An Integrated Peptidomics and In Silico Approach to Identify Novel Anti-Diabetic Peptides in Parmigiano-Reggiano Cheese” (Biology, 2021).

Test [1] concerns the target T1, rat intestinal DPP-IV (Rattus norvegicus, UniProt P14740).
T1 construct: 10 μL of rat intestinal DPP-IV (0.1 U/mL in the assay); from tissue; host or cells: rat intestine
Kind of test: Dipeptidyl peptidase IV (DPP-IV) assay. In kind it is biochemical. The conditions noted are these: synthetic peptides. The method, then:
DPP-IV assay was performed as described in Tagliazucchi et al.. Briefly, in a 96-well plate, 10 μL of rat intestinal DPP-IV (0.1 U/mL in the assay) were mixed with 145 μL of Tris-HCl buffer (pH 7.0; 0.1 mol/L) and 40 μL of different concentrations of water-soluble low-molecular weight peptide extracts. After 20 min of incubation at 37 °C, the reaction was started by the addition of 5 μL of glycine-proline-p-nitroanilide (6.4 mmol/L). The amount of released p-nitroanilide was determined after 20 min of incubation at 37 °C by reading at 405 nm in a microplate reader. Results were expressed as IC50 as reported above.
(§1) Selected peptides were then synthesized (Bio-Fab Research, Rome, Italy) and tested for their inhibitory activity against DPP-IV, α-glucosidase, and α-amylase. The assays were carried out as reported in Section 2.3. The results were expressed as IC50 values.

The target in test [2] is yeast α-glucosidase (Saccharomyces cerevisiae, UniProt P53341). The test is described as follows: α-Glucosidase assay. The class given is biochemical. The note with it: for inhibition at 1000 µM: read-out: percentage of inhibition of α-glucosidase; for IC50: synthetic peptides, n.a. = not active. The method, then: α-Glucosidase assay was performed as reported in Bellesia et al., adapted to a microplate reader. The reaction was performed by mixing 66.7 μL of potassium phosphate buffer (67 mmol/L, pH 6.8), 3.3 μL of glutathione 3 mmol/L, 20 μL of different concentrations of water-soluble low-molecular weight peptide extracts, and 5 μL of yeast α-glucosidase 0.2 U/mL. After 20 min of incubation at 37 °C, the reaction was started by the addition of 5 μL of p-nitrophenyl-glucose 5 mmol/L. After a further 20 min of incubation at 37 °C, the reaction was stopped by the addition of 150 μL of Na2CO3 100 mmol/L. The amount of released p-nitrophenol was determined by reading at 405 nm with a microplate reader. Results were expressed as IC50 as reported above.
yeast α-glucosidase, sequence (P53341 whole entry): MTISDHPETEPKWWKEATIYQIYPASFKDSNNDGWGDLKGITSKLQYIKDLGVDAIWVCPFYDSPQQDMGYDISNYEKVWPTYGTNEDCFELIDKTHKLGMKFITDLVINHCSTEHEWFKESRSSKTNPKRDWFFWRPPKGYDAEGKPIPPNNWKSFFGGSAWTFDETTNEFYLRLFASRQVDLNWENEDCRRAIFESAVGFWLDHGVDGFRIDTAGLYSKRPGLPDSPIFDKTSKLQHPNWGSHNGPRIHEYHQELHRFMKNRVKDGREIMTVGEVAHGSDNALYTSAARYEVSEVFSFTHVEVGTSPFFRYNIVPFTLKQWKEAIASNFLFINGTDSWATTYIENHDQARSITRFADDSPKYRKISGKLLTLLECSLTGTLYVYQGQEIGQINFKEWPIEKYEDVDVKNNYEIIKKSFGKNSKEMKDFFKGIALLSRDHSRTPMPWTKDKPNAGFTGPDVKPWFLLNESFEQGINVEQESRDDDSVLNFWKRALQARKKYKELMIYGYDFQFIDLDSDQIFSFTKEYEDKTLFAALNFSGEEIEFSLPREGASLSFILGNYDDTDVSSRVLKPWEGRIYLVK
as §1

The test system of test [3] is angiotensin converting enzyme. The note with it: ref BIOPEP database and Milk Bioactive Peptides Database; cited from earlier work.
Details of test [4]: method as in BIOPEP database and Milk Bioactive Peptides Database. The note with it: ref BIOPEP database and Milk Bioactive Peptides Database; cited from earlier work.
On the set-up of test [5]: method as in BIOPEP database and Milk Bioactive Peptides Database. The conditions noted are these: ref BIOPEP database and Milk Bioactive Peptides Database; cited from earlier work. This is another data set of the same source.
Test [6] deals with DPP-IV. The note with it: cited from earlier work; for Bioactivity: DPP-IV-inhibition: ref BIOPEP database and Milk Bioactive Peptides Database; for IC50: ref [41],[51],[52], read-out: IC50 DPP-IV, previously reported.
On the set-up of test [7]: method as in BIOPEP database and Milk Bioactive Peptides Database. The conditions noted are these: ref BIOPEP database and Milk Bioactive Peptides Database; cited from earlier work. The source holds these as a separate data set.

Ends that are not written are not given here. Peptide text beside a SMILES is read from it.

T1 sequence (P14740 whole entry): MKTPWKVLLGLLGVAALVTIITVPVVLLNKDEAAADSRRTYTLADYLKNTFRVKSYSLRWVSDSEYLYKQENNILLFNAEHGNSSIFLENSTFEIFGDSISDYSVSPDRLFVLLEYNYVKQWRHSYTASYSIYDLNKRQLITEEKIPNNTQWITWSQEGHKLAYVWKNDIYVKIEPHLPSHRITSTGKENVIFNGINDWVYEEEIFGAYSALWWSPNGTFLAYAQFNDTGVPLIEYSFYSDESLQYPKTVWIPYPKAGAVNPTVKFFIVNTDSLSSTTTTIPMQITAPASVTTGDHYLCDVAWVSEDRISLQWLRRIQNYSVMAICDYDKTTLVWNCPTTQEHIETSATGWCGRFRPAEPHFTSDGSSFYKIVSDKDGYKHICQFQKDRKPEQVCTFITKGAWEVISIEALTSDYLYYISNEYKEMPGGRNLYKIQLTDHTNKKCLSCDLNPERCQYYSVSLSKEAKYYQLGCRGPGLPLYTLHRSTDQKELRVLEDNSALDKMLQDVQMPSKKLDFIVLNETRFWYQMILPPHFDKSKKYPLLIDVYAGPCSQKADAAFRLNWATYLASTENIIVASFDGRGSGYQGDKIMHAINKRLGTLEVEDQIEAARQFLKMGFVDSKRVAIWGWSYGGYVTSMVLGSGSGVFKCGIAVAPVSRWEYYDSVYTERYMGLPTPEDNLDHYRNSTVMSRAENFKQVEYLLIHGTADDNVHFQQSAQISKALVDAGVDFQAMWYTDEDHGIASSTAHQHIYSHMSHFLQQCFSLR

Take `CC(C)C[C@H](N)C(=O)N1CCC[C@H]1C(=O)N1CCC[C@H]1C(=O)N[C@H](C(=O)O)[C@@H](C)O` [LPPT] (H-LPPT-OH): the midpoint of inhibition in test [1], the IC50, lay at 495.3 ± 3.6 µM.

As for `O=C(O)[C@H](Cc1ccccc1)NC(=O)[C@@H]1CCCN1C(=O)[C@@H]1CCCN1` [PPF] (H-Pro-Pro-Phe-OH), in test [2], the inhibition (usually the drop in the measured response relative to a control, in per cent) at 1000 µM stood at 8.8 ± 1.3% and the IC50 (usually the concentration that inhibits the measured activity by half) was > 1 mM. In addition, the IC50 in test [1] amounted to 142 ± 1.7 µM. In turn, APFPE [APFPE] displayed a half-inhibitory concentration (IC50) in test [1] of 49.5 ± 0.5 µM. Consider “DKIHP (UniProt P02666 62-66, looked up, fragment) [β-casein f(47–51)]”, for which, in test [3], the “Bioactivity: ACE-inhibition” value is on record as “ACE-inhibition”. For the molecule “DKIHPF (UniProt P02666 62-67, looked up, fragment) [β-casein f(47–52)]”, in test [3], the “Bioactivity: ACE-inhibition” value is “ACE-inhibition”. Turning to DVPSERYLG [αS1-casein f(85–93)], the “Bioactivity: ACE-inhibition” value in test [3] is on record as “ACE-inhibition”. As to “EMPFPK (UniProt P02666 123-128, looked up, fragment) [β-casein f(108–113)]”, the “Bioactivity: Anti-microbial” value in test [4] is listed as “Anti-microbial”. Further, the “Bioactivity: ACE-inhibition” value in test [3] is reported as “ACE-inhibition”.

“ENLLRF (UniProt P02662 33-38, looked up, fragment) [αS1-casein f(18–23)]”: the “Bioactivity: ACE-inhibition” value in test [3] is listed as “ACE-inhibition”. Turning to “FFVAP (UniProt P02662 38-42, looked up, fragment) [αS1-casein f(23–27)]”, the “Bioactivity: ACE-inhibition” value in test [3] is “ACE-inhibition”. Regarding “FGK (UniProt P02662 47-49, looked up, fragment) [αS1-casein f(32–34)]”, the “Bioactivity: ACE-inhibition” value in test [3] is given as “ACE-inhibition”. Take “FVAP (UniProt P02662 39-42, looked up, fragment) [αS1-casein f(24–27)]”: in test [3], the “Bioactivity: ACE-inhibition” value is recorded as “ACE-inhibition”. On to “GTQY (UniProt P02662 185-187, looked up, fragment) [αS1-casein f(170–172)]”, for which the “Bioactivity: ACE-inhibition” value in test [3] was “ACE-inhibition”. The “Bioactivity: Antioxidant” value in test [5] is given as “Antioxidant”.

“IPPL (UniProt P02666 89-92, looked up, fragment) [β-casein f(74–77)]”: in test [6], the “Bioactivity: DPP-IV-inhibition” value is “DPP-IV-inhibition” and the half-inhibitory concentration (IC50) was 429 µM.

As for IPPLTQTPV [β-casein f(74–82)], in test [6], the “Bioactivity: DPP-IV-inhibition” value is “DPP-IV-inhibition” and the IC50 was 465 µM.

As to “IVP (UniProt P02662 86-88, looked up, fragment) [αS1-casein f(71–73)]”, in test [3], the “Bioactivity: ACE-inhibition” value is listed as “ACE-inhibition”. As for “LEE (UniProt P02666 18-20, looked up, fragment) [β-casein f(3–5)]”, in test [3], the “Bioactivity: ACE-inhibition” value is “ACE-inhibition”. “LNF (UniProt P02663 176-178, looked up, fragment) [αS2-casein f(161–163)]”: in test [3], the “Bioactivity: ACE-inhibition” value was “ACE-inhibition”.

In the case of LPQ, in test [6], the “Bioactivity: DPP-IV-inhibition” value is “DPP-IV-inhibition” and the IC50 is 82 µM. “LVYPFP (UniProt P02666 73-78, looked up, fragment) [β-casein f(58–63)]”: in test [3], the “Bioactivity: ACE-inhibition” value is “ACE-inhibition”. On to LVYPFPGP [β-casein f(58–65)], for which the “Bioactivity: ACE-inhibition” value in test [3] is reported as “ACE-inhibition”.

Regarding “PEL (UniProt P02662 162-164, looked up, fragment) [αS1-casein f(147–149)]”, the “Bioactivity: Antioxidant” value in test [5] is given as “Antioxidant”. As for “PFPE (UniProt P02662 42-45, looked up, fragment) [αS1-casein f(27–30)]”, in test [3], the “Bioactivity: ACE-inhibition” value is “ACE-inhibition”. Turning to “PGPIP (UniProt P02666 78-82, looked up, fragment) [β-casein f(63–67)]”, the “Bioactivity: ACE-inhibition” value in test [3] is recorded as “ACE-inhibition”.

As for “PLW (UniProt P02662 212-214, looked up, fragment) [αS1-casein f(197–199)]”, in test [3], the “Bioactivity: ACE-inhibition” value is “ACE-inhibition”. Consider “QEPV (UniProt P02666 209-212, looked up, fragment) [β-casein f(194–197)]”, for which the “Bioactivity: Immunomodulation” value in test [7] is “Immunomodulation”. For the molecule “QGP (UniProt P02663 116-118, looked up, fragment) [αS2-casein f(101–103)]”, the “Bioactivity: ACE-inhibition” value in test [3] was “ACE-inhibition”. As for QGPIVLNPWDQVKR [αS2-casein f(101–114)], the “Bioactivity: Antioxidant” value in test [5] is reported as “Antioxidant”. Consider “RELEEL (UniProt P02666 16-21, looked up, fragment) [β-casein f(1–6)]”, for which the “Bioactivity: Antioxidant” value in test [5] is given as “Antioxidant”.

As for “SLPQ (UniProt P02666 84-87, looked up, fragment) [β-casein f(69–72)]”, in test [3], the “Bioactivity: ACE-inhibition” value is “ACE-inhibition”.

Regarding TEDELQDKIHPF [β-casein f(41–52)], the “Bioactivity: Anti-microbial” value in test [4] is recorded as “Anti-microbial”. For TKVIPYVRYL [αS2-casein f(198–207)], the “Bioactivity: Anti-microbial” value in test [4] is reported as “Anti-microbial”. Turning to “TVY (UniProt P02663 197-199, looked up, fragment) [αS2-casein f(182–184)]”, the “Bioactivity: ACE-inhibition” value in test [3] is on record as “ACE-inhibition”. As to “VEP (UniProt P02666 131-133, looked up, fragment) [β-casein f(116–118)]”, the “Bioactivity: ACE-inhibition” value in test [3] is reported as “ACE-inhibition”. Turning to VLP, in test [3], the “Bioactivity: ACE-inhibition” value is on record as “ACE-inhibition”.

Take “VVPP (UniProt P02666 98-101, looked up, fragment) [β-casein f(83–86)]”: the “Bioactivity: ACE-inhibition” value in test [3] was “ACE-inhibition”. With VVPPF [VVPPF], the inhibition at 1000 µM in test [2] is 22 ± 1.3%. In addition, the IC50 in test [2] is > 1 mM; in test [1], 699 ± 11.1 µM. Turning to VVVPPF [VVVPPF], in test [2], the inhibition at 1000 µM was 22.5 ± 1% and the half-maximal inhibitory concentration (IC50) was > 1 mM. Further, the IC50 in test [1] turned out to be 610 ± 13.6 µM. Take “WIQP (UniProt P02663 208-211, looked up, fragment) [αS2-casein f(193–196)]”: in test [6], the “Bioactivity: DPP-IV-inhibition” value is listed as “DPP-IV-inhibition” and the IC50 was 237 µM. The “Bioactivity: ACE-inhibition” value in test [3] is “ACE-inhibition”. Turning to YLEQLLR [αS1-casein f(94–100)], the “Bioactivity: Anti-microbial” value in test [4] is “Anti-microbial”. With “YLG (UniProt P02662 106-108, looked up, fragment) [αS1-casein f(91–93)]”, the “Bioactivity: Antioxidant” value in test [5] is “Antioxidant”. For the molecule “YLGY (UniProt P02662 106-109, looked up, fragment) [αS1-casein f(91–94)]”, in test [3], the “Bioactivity: ACE-inhibition” value was “ACE-inhibition”. Also, the “Bioactivity: Antioxidant” value in test [5] is “Antioxidant”. Turning to “YQEP (UniProt P02666 208-211, looked up, fragment) [β-casein f(193–196)]”, the “Bioactivity: ACE-inhibition” value in test [3] is on record as “ACE-inhibition”.

Consider YQEPVLGPVRGPFPIIV [β-casein f(193–209)], for which the “Bioactivity: Anti-microbial” value in test [4] is reported as “Anti-microbial”. Also, in test [3], the “Bioactivity: ACE-inhibition” value is reported as “ACE-inhibition”. In the case of YQGPIVLNPWDQVKR [αS2-casein f(100–114)], the “Bioactivity: Anti-microbial” value in test [4] is listed as “Anti-microbial”. Besides, in test [3], the “Bioactivity: ACE-inhibition” value is given as “ACE-inhibition”. In test [7], the “Bioactivity: Immunomodulation” value was “Immunomodulation”.

As to “YQL (UniProt P02662 169-171, looked up, fragment) [αS1-casein f(154–156)]”, the “Bioactivity: Antioxidant” value in test [5] was “Antioxidant”.
